Measurements: the supplement of paper PMC13380429

Tests used:
[1] = tested on: A549-ACE2 infected with SARS-CoV-2; assay: morphology score (similarity to uninfected cells); higher = more like uninfected cells; conditions: 24 h
[2] = tested on: Calu-3; assay: drug sensitivity score (DSS) for viability; higher = more toxic; extreme values may be limits of the assay; conditions: 72 h
[3] = tested on: HepG2; assay: as above; conditions: 72 h
[4] = tested on: U2OS; assay: as above; conditions: 72 h
[5] = tested on: A549-ACE2 infected with SARS-CoV-2; assay: cell count relative to DMSO; higher = less toxic; conditions: 24 h
[6] = tested on: Caco-2; assay: cell viability relative to DMSO; higher = less toxic; conditions: 72 h
[7] = tested on: Calu-3; assay: as above; conditions: 72 h
[8] = tested on: HepG2; assay: as above; conditions: 72 h
[9] = tested on: U2OS; assay: as above; conditions: 72 h
[10] = tested on: Vero E6; assay: as above; conditions: 72 h
[11] = tested on: A549-ACE2 infected with SARS-CoV-2; assay: SARS-CoV-2 infection rate relative to DMSO; higher = more infection; conditions: 24 h
[12] = tested on: A549-ACE2; assay: drug-induced phospholipidosis relative to tamoxifen; higher = more phospholipidosis
[13] = tested on: Caco-2; assay: relative viability EC50 (midpoint between 100% and the lowest measured viability); higher = less toxic; conditions: 72 h
[14] = tested on: Calu-3; assay: as above; conditions: 72 h
[15] = tested on: HepG2; assay: as above; conditions: 72 h
[16] = tested on: U2OS; assay: as above; conditions: 72 h
[17] = tested on: Vero E6; assay: as above; conditions: 72 h
[18] = tested on: Caco-2; assay: drug sensitivity score (DSS) for viability; higher = more toxic; extreme values may be limits of the assay; conditions: 72 h
[19] = tested on: Vero E6; assay: as above; conditions: 72 h
[20] = tested on: A549-ACE2; assay: phospholipidosis EC50; higher = less potent phospholipidosis inducer

CCN(CC)CCCC(C)Nc1ccnc2cc(Cl)ccc12 (configuration not stated) [chloroquine]
[1]
Conditions | morphology score
0.3 µM | 0.17
3 µM | 0.37
10 µM | 0.63
30 µM | 0.8

Conditions | drug sensitivity score
[2] | 0
[3] | 0.6
[4] | 0

CCN(CC)C(=S)SSC(=S)N(CC)CC [disulfiram]
Conditions | SARS-CoV-2 infection rate, [11] [%] | cell count, [5] [%] | cell viability, [6] [%] | cell viability, [7] [%] | cell viability, [8] [%] | cell viability, [9] [%] | cell viability, [10] [%] | morphology score, [1]
1 nM | – | – | 103 | 101 | 104 | 100 | 108 | –
10 nM | – | – | 90.1 | 90.5 | 103 | 99.6 | 104 | –
100 nM | – | – | 19.1 | 94.7 | 53.2 | 99 | 101 | –
0.3 µM | 84 | 105 | – | – | – | – | – | 0.44
1000 nM | – | – | 9.6 | 36.9 | 13.7 | 78 | 89.3 | –
3 µM | 76 | 106 | – | – | – | – | – | 0.45
10 µM | 27 | 63 | – | – | – | – | – | 0.51
10000 nM | – | – | 75.3 | 106 | 95 | 94.6 | 99.6 | –
30 µM | 32 | 58 | – | – | – | – | – | 0.35

drug-induced phospholipidosis [%], [12]
Conditions | 0.3 µM | 0.833333 µM | 3.33333 µM | 6.66667 µM | 10 µM | 30 µM
24 h | 2.43 | -1.42 | 2.59 | -0.54 | 2.87 | 7.83
48 h | – | – | – | -0.28 | 1.88 | –
72 h | – | – | – | 1.75 | 1.77 | –

Conditions | drug sensitivity score | relative viability EC50 [nM]
[2] | 0 | –
[3] | 21.4 | –
[4] | 0.2 | –
[13] | – | 31.4
[14] | – | > 10000
[15] | – | 93.6
[16] | – | > 10000
[17] | – | > 10000
[18] | 27.5 | –
[19] | 0 | –

OCCN1CCN(CCCN2c3ccccc3Sc3ccc(C(F)(F)F)cc32)CC1 [fluphenazine]
Conditions | SARS-CoV-2 infection rate [%] | cell count [%] | cell viability [%] | morphology score | phospholipidosis EC50 [nM]
[1], 0.1 µM | – | – | – | 0.13 | –
[1], 0.3 µM | – | – | – | 0.02 | –
[1], 1 µM | – | – | – | 0.49 | –
[1], 3 µM | – | – | – | 0.75 | –
[5], 0.1 µM | – | 103 | – | – | –
[5], 0.3 µM | – | 99 | – | – | –
[5], 1 µM | – | 90 | – | – | –
[5], 3 µM | – | 122 | – | – | –
[6], 1 nM | – | – | 101 | – | –
[6], 10 nM | – | – | 100 | – | –
[6], 100 nM | – | – | 88.2 | – | –
[6], 1000 nM | – | – | 85.2 | – | –
[6], 10000 nM | – | – | 64.4 | – | –
[7], 1 nM | – | – | 101 | – | –
[7], 10 nM | – | – | 110 | – | –
[7], 100 nM | – | – | 96.8 | – | –
[7], 1000 nM | – | – | 98.1 | – | –
[7], 10000 nM | – | – | 22.4 | – | –
[8], 1 nM | – | – | 102 | – | –
[8], 10 nM | – | – | 90.9 | – | –
[8], 100 nM | – | – | 95.9 | – | –
[8], 1000 nM | – | – | 96.1 | – | –
[8], 10000 nM | – | – | 49.4 | – | –
[9], 1 nM | – | – | 101 | – | –
[9], 10 nM | – | – | 101 | – | –
[9], 100 nM | – | – | 94.7 | – | –
[9], 1000 nM | – | – | 92.6 | – | –
[9], 10000 nM | – | – | 84.2 | – | –
[10], 1 nM | – | – | 103 | – | –
[10], 10 nM | – | – | 100 | – | –
[10], 100 nM | – | – | 101 | – | –
[10], 1000 nM | – | – | 95.5 | – | –
[10], 10000 nM | – | – | 52 | – | –
[11], 0.1 µM | 97 | – | – | – | –
[11], 0.3 µM | 99 | – | – | – | –
[11], 1 µM | 83 | – | – | – | –
[11], 3 µM | 44 | – | – | – | –
[20], 24 h | – | – | – | – | 3490
[20], 48 h | – | – | – | – | 5080
[20], 72 h | – | – | – | – | 6620

drug-induced phospholipidosis [%], [12]
Conditions | 0.3 µM | 0.833333 µM | 3.33333 µM | 6.66667 µM | 10 µM | 30 µM
24 h | 3.92 | 11.1 | 44.3 | 81.8 | 103 | 78.9
48 h | 2.29 | 10 | 32.4 | 91.3 | 114 | –
72 h | 4.14 | 10.7 | 24.3 | 80.2 | 116 | –

Conditions | drug sensitivity score | relative viability EC50 [nM]
[2] | 4.5 | –
[3] | 3.3 | –
[4] | 0.5 | –
[14] | – | 2990
[15] | – | 2530
[16] | – | > 10000
[18] | 3.4 | –
[19] | 3.2 | –

CC(C)C[C@H](NC(=O)CNC(=O)c1cc(Cl)ccc1Cl)B(O)O [ixazomib]
Conditions | SARS-CoV-2 infection rate, [11] [%] | cell count, [5] [%] | cell viability, [6] [%] | cell viability, [7] [%] | cell viability, [8] [%] | cell viability, [9] [%] | cell viability, [10] [%] | morphology score, [1]
1 nM | – | – | 86.9 | 90 | 107 | 95.9 | 97.4 | –
10 nM | – | – | 102 | 99 | 105 | 93.4 | 99.3 | –
0.1 µM | 99 | 90 | – | – | – | – | – | 0.03
100 nM | – | – | 24.4 | 35.8 | 99.5 | 84.5 | 78.5 | –
0.3 µM | 98 | 80 | – | – | – | – | – | 0.25
1 µM | 64 | 72 | – | – | – | – | – | 0.26
1000 nM | – | – | 4.7 | 5.8 | 7.7 | 1.3 | 11.5 | –
3 µM | 46 | 59 | – | – | – | – | – | 0.26
10000 nM | – | – | 7.3 | 5.7 | 0.6 | -0.1 | 3.7 | –

[12], 0.3 µM
Conditions | drug-induced phospholipidosis [%]
24 h | -5.63
48 h | -3.87
72 h | -1.4

Conditions | drug sensitivity score | relative viability EC50 [nM]
[2] | 24.6 | –
[3] | 16.8 | –
[4] | 20.5 | –
[13] | – | 58.8
[14] | – | 71.4
[15] | – | 383
[16] | – | 197
[17] | – | 218
[18] | 25.9 | –
[19] | 18.9 | –

O=C(NC1CCN(CCCCC2(C(=O)NCC(F)(F)F)c3ccccc3-c3ccccc32)CC1)c1ccccc1-c1ccc(C(F)(F)F)cc1 [lomitapide]
Conditions | SARS-CoV-2 infection rate [%] | cell count [%] | cell viability [%] | morphology score | phospholipidosis EC50 [nM]
[1], 0.1 µM | – | – | – | -0.14 | –
[1], 0.3 µM | – | – | – | 0.12 | –
[1], 1 µM | – | – | – | 0.6 | –
[1], 3 µM | – | – | – | 0.91 | –
[5], 0.1 µM | – | 96 | – | – | –
[5], 0.3 µM | – | 104 | – | – | –
[5], 1 µM | – | 108 | – | – | –
[5], 3 µM | – | 119 | – | – | –
[6], 1 nM | – | – | 101 | – | –
[6], 10 nM | – | – | 103 | – | –
[6], 100 nM | – | – | 103 | – | –
[6], 1000 nM | – | – | 103 | – | –
[6], 10000 nM | – | – | 11.8 | – | –
[7], 1 nM | – | – | 101 | – | –
[7], 10 nM | – | – | 100 | – | –
[7], 100 nM | – | – | 98.4 | – | –
[7], 1000 nM | – | – | 109 | – | –
[7], 10000 nM | – | – | 1.2 | – | –
[8], 1 nM | – | – | 108 | – | –
[8], 10 nM | – | – | 106 | – | –
[8], 100 nM | – | – | 106 | – | –
[8], 1000 nM | – | – | 100 | – | –
[8], 10000 nM | – | – | -0.5 | – | –
[9], 1 nM | – | – | 101 | – | –
[9], 10 nM | – | – | 110 | – | –
[9], 100 nM | – | – | 104 | – | –
[9], 1000 nM | – | – | 106 | – | –
[9], 10000 nM | – | – | 1.2 | – | –
[10], 1 nM | – | – | 102 | – | –
[10], 10 nM | – | – | 104 | – | –
[10], 100 nM | – | – | 96 | – | –
[10], 1000 nM | – | – | 97.8 | – | –
[10], 10000 nM | – | – | -0.6 | – | –
[11], 0.1 µM | 98 | – | – | – | –
[11], 0.3 µM | 93 | – | – | – | –
[11], 1 µM | 72 | – | – | – | –
[11], 3 µM | 12 | – | – | – | –
[20], 24 h | – | – | – | – | 898
[20], 48 h | – | – | – | – | 1800
[20], 72 h | – | – | – | – | 2500

drug-induced phospholipidosis [%], [12]
Conditions | 0.3 µM | 0.833333 µM | 3.33333 µM | 6.66667 µM | 10 µM | 30 µM
24 h | 11.9 | 29.7 | 81 | 81.2 | 40.9 | 49.8
48 h | 15.5 | 36 | 91.1 | 108 | – | –
72 h | 12.7 | 28.5 | 83.5 | 131 | – | –

Conditions | drug sensitivity score | relative viability EC50 [nM]
[2] | 4.9 | –
[3] | 5.6 | –
[4] | 5.1 | –
[13] | – | 3380
[14] | – | 3610
[15] | – | 3140
[16] | – | 3460
[17] | – | 2970
[18] | 4.6 | –
[19] | 5.9 | –
